Series [1] can be described thus: Plasma concentrations of tertiary amines and their N-oxides in mice (LC-MS). The settings on record: mouse, in vivo. As for the experimental part: The LC-MS system consists of 2 Perkin elmer series 200 micro pumps. The pumps are connected to each other by a 50 μl tee mixer, connected to a Gilson 215 auto sampler. The method is as follows:
The auto sampler has a 2 μl injection loop. The auto sampler is connected to a Waters Atlantis C18 30*4.6 mm column with 3 μm particles. The column is thermo stated in a Perkin Elmer series 200 column oven at 40° C. The column is connected to a Perkin Elmer series 200 UV meter with a 2.7 μl flowcel. The wavelength is set to 254 nm. The UV meter is connected to a Sciex API 150EX mass spectrometer. The mass spectrometer has the following parameters: Scanrange: 150-900 a.m.u.; polarity: positive; scan mode: profile; resolution Q1: UNIT; step size: 0.10 a.m.u.; time per scan: 0.500 sec; NEB: 10; CUR: 10; IS: 5200; TEM: 325; DF: 30; FP: 225 and EP: 10. The light scattering detector is connected to the Sciex API 150. The light scattering detector is a Sedere Sedex 55 operating at 50° C. and 3 bar N2. The complete system is controlled by a G3 powermac.
For oral (p.o.) administration: to the desired quantity (0.5-5 mg) of the solid test compound in a glass tube, some glass beads were added and the solid was milled by vortexing for 2 minutes. After addition of 1 ml of a solution of 1% methylcellulose in water and 2% (v/v) of Poloxamer 188 (Lutrol F68), the compound was suspended by vortexing for 10 minutes. The pH was adjusted to 7. Remaining particles in the suspension were further suspended by using an ultrasonic bath.
For intravenous (i.v.) administration: compounds were dissolved in physiological saline (0.9% NaCl) and the pH was adjusted to 7.
Bifeprunox, SLV308 and SLV318 as well as their respective N-oxides were individually administered (either intravenously (i.v.) or orally (p.o.)) to mice (3 animals per time point), after which their blood was analyzed by LC-MS (method see above) for both the parent amine and its N-oxide. Data were averaged (n=3), and collected in the tables below.

Series [2] is described as follows: Metabolism to the N-oxide in man. Type of series: in vivo. The conditions noted are these: after administration of the tertiary amine. The source says: But also its N-desmethyl analog and its N-oxide were detected in the plasma of all three species, after oral administration of SLV308. In man, the N-oxide accounts for approximately 30% of the administered dose.
In man, neither bifeprunox nor SLV318 are metabolized to their respective N-oxides. […] For this reason there never has been an incentive to synthesize and study these compounds until the unexpected findings with the N-oxide of SLV308.

The values that follow come from US7750013B2, “N-oxides as prodrugs of piperazine and piperidine derivatives” (Solvay Pharmaceuticals, B.V., priority 2005, dated 2010).

Structures are written as SMILES.

For `O=c1[nH]c2cccc(N3CC[N+]([O-])(Cc4cccc(-c5ccccc5)c4)CC3)c2o1` [N-oxide of bifeprunox, N-Oxide of Bifeprunox], the “Analyzed in blood: Bifeprunox” value in series [1] (iv, 0.5 mg/kg, 0 hr) was found to be 0 ng/mL; in series [1] (iv, 0.5 mg/kg, 0.5 hr), 176 ng/mL; in series [1] (iv, 0.5 mg/kg, 3 hr), 80 ng/mL; in series [1] (po, 5 mg/kg, 1 hr), 520 ng/mL; in series [1] (po, 5 mg/kg, 24 hr), 38 ng/mL. Further, the “Analyzed in blood: N-oxide (of bifeprunox)” value in series [1] (iv, 0.5 mg/kg, 0.5 hr) was 85 ng/mL; in series [1] (iv, 0.5 mg/kg, 7 hr) it was 5 ng/mL; in series [1] (iv, 0.5 mg/kg, 24 hr), 0 ng/mL; in series [1] (po, 5 mg/kg, 1 hr), 70 ng/mL; in series [1] (po, 5 mg/kg, 7 hr) it was 48 ng/mL; in series [1] (po, 5 mg/kg, 24 hr), 6 ng/mL.

`O=c1[nH]c2cccc(N3CCN(Cc4ccccc4)CC3)c2o1` [SLV318]: the “Formation of N-oxide as metabolite (in words)” value in series [1] is recorded as “does not give rise to a significant amount of N-oxide as metabolite”. Also, the “Analyzed in blood: N-oxide (of SLV318)” value in series [1] (iv, 0.5 mg/kg, 0.17 hr) came to 1 ng/mL; in series [1] (iv, 0.5 mg/kg, 0.5 hr) it was 0 ng/mL; in series [1] (iv, 0.5 mg/kg, 1 hr), 0 ng/mL; in series [1] (iv, 0.5 mg/kg, 3 hr) it was 0 ng/mL; in series [1] (iv, 0.5 mg/kg, 7 hr), 0 ng/mL; in series [1] (iv, 0.5 mg/kg, 24 hr), 0 ng/mL. In addition, the “Analyzed in blood: N-oxide (of SLV318)” value was determined as 0 ng/mL in series [1] (po, 5 mg/kg, 0.17 hr); 0 ng/mL in series [1] (po, 5 mg/kg, 0.5 hr); 0 ng/mL in series [1] (po, 5 mg/kg, 1 hr); 0 ng/mL in series [1] (po, 5 mg/kg, 3 hr); 0 ng/mL in series [1] (po, 5 mg/kg, 7 hr); 0 ng/mL in series [1] (po, 5 mg/kg, 24 hr). The “Analyzed in blood: SLV318” value is 164 ng/mL in series [1] (iv, 0.5 mg/kg, 0.17 hr); 51 ng/mL in series [1] (iv, 0.5 mg/kg, 0.5 hr); 18 ng/mL in series [1] (iv, 0.5 mg/kg, 1 hr); 2 ng/mL in series [1] (iv, 0.5 mg/kg, 3 hr); 0.2 ng/mL in series [1] (iv, 0.5 mg/kg, 7 hr); 0 ng/mL in series [1] (iv, 0.5 mg/kg, 24 hr). Besides, the “Analyzed in blood: SLV318” value in series [1] (po, 5 mg/kg, 0.17 hr) amounted to 71 ng/mL; in series [1] (po, 5 mg/kg, 0.5 hr) it was 33 ng/mL; in series [1] (po, 5 mg/kg, 1 hr) it was 19 ng/mL; in series [1] (po, 5 mg/kg, 3 hr), 9 ng/mL; in series [1] (po, 5 mg/kg, 7 hr) it was 2 ng/mL; in series [1] (po, 5 mg/kg, 24 hr), 0 ng/mL. Besides, in series [2], the “N-oxide as metabolite in blood plasma (in words)” value is “never detected in significant concentrations”.

Turning to `O=c1[nH]c2cccc(N3CC[N+]([O-])(Cc4ccccc4)CC3)c2o1` [N-oxide of SLV318, N-Oxide of SLV318], the “Analyzed in blood: N-oxide (of SLV318)” value was 0 ng/mL in series [1] (iv, 0.5 mg/kg, 24 hr) and 0 ng/mL in series [1] (po, 5 mg/kg, 3 hr). In addition, the “Analyzed in blood: SLV318” value in series [1] (po, 5 mg/kg, 0.17 hr) was 1 ng/mL; in series [1] (po, 5 mg/kg, 0.5 hr), 7 ng/mL; in series [1] (po, 5 mg/kg, 24 hr), 0 ng/mL.
